Experiments:
PARP1 enzyme = PARP1 enzyme (Homo sapiens (Human), UniProt P09874); assay: PARP Mass Spectroscopy Assay (PARP1 enzymatic assay, nicotinamide detection); format: biochemical; settings: 5 nM PARP1, 5 uM β-NAD, 60 min at RT, NAM by mass spectrometry
Method in brief: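 Compounds were pre-incubated 30 min at RT with 5 nM PARP1 and core histones, then reacted 60 min at RT with 5 uM β-NAD and activated DNA in Tris pH 8.0 buffer with MgCl2, NaCl, Triton X-100 and DTT. The reaction was quenched with 3ABA, and nicotinamide was measured by mass spectrometry. IC50 came from a four-parameter fit of 10-point curves.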

[1] = target: human MDR1 (P-glycoprotein; P-gp) (Homo sapiens (Human), UniProt P08183); assay: bi-directional MDCK-MDR1 permeability assay; format: in vitro ADME; settings: MDCK-MDR1; for Papp A→B: dog, apical to basolateral direction; for efflux ratio: human, efflux ratio B→A/A→B, read-out: MDCK-MDR1 ER
human MDR1 (P-glycoprotein; P-gp), sequence (P08183 whole entry): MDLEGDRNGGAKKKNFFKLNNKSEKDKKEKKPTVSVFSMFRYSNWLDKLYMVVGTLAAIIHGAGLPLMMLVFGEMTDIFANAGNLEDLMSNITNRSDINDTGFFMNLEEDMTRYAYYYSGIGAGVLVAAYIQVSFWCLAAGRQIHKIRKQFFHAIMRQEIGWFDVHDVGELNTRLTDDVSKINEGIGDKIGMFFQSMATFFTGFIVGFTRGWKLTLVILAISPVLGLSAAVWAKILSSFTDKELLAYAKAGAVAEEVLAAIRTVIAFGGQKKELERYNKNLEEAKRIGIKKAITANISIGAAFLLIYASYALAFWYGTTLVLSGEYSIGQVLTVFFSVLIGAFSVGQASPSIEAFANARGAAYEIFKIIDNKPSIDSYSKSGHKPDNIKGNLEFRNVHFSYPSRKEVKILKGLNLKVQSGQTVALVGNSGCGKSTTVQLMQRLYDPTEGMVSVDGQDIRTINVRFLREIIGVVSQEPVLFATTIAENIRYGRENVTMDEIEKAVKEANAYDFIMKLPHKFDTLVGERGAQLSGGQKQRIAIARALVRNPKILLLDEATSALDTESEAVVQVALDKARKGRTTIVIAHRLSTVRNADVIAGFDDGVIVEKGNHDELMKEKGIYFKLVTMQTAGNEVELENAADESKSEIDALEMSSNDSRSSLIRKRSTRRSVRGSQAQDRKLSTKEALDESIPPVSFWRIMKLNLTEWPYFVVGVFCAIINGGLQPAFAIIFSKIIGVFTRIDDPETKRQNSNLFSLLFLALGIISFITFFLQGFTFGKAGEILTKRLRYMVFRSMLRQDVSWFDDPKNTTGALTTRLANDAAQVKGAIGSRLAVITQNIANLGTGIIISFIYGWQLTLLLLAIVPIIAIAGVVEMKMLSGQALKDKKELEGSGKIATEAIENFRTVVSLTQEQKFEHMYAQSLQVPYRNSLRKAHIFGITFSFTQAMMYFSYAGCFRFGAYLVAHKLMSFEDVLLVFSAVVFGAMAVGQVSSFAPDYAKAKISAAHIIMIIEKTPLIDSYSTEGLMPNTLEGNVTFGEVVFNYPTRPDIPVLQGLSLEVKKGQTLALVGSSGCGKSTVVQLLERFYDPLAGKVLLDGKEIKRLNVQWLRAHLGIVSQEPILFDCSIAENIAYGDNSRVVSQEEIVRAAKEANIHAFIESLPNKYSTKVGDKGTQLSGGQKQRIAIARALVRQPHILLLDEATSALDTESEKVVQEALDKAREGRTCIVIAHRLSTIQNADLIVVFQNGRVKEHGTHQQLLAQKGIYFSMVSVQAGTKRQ
From the text: The bi-directional assay containing a Mandin Darby canine kidney (MDCK) cell line transfected with human MDR1 gene (P-glycoprotein; P-gp) designed to overexpress the MDR1 efflux transporter, a major efflux transporter at the blood brain barrier (BBB), uses an established method that measures the rate of flux of a compound across polarized cell monolayers. As well appreciated in the art, the data generated from the MDCK-MDR1 permeability assay may be used to predict in vivo absorption of drugs. The bi-directional MDCK-MDR1 permeability assay can identify and quantify levels of active efflux. Screening compounds in both the apical to basolateral direction (A→B) and basolateral to apical direction (B→A) across the cell monolayer provides a ratio of B→A/A→B (efflux ratio; “ER”). Unlike the Caco-2 assay, the MDCK-MDR1 assay is not subject to potential efflux interference by breast cancer resistance protein (BCRP). […] The data may further be used to predict blood brain barrier (BBB) permeability via calculation from the data of log(permeability-surface area product) (“log PS”), well-understood to be predictive of the in vivo log([brain concentration]/[plasma concentration]).

[2] = in vivo unbound brain to plasma ratio (Kpuu) at steady state; settings: rat, brain and plasma (unbound), continuous intravenous infusion over 24 hours, Sprague Dawley rats, free drug in brain vs plasma
Protocol: Compounds of the present technology are predicted to show BBB passage according to internal proprietary predictive models. These predictive models were further verified by in vivo experiments. In particular, in vivo unbound brain to plasma ratio (Kpuu) was measured at steady state by comparison of free drug concentrations (protein binding corrected) in brain and plasma after continuous intravenous infusion in Sprague Dawley rats over 24 hours, where a Kpuu of >0.3 represents good brain exposure of the compound.

tumors = settings: literature statement; cited from earlier work

PARP1 enzyme, sequence (P09874 whole entry): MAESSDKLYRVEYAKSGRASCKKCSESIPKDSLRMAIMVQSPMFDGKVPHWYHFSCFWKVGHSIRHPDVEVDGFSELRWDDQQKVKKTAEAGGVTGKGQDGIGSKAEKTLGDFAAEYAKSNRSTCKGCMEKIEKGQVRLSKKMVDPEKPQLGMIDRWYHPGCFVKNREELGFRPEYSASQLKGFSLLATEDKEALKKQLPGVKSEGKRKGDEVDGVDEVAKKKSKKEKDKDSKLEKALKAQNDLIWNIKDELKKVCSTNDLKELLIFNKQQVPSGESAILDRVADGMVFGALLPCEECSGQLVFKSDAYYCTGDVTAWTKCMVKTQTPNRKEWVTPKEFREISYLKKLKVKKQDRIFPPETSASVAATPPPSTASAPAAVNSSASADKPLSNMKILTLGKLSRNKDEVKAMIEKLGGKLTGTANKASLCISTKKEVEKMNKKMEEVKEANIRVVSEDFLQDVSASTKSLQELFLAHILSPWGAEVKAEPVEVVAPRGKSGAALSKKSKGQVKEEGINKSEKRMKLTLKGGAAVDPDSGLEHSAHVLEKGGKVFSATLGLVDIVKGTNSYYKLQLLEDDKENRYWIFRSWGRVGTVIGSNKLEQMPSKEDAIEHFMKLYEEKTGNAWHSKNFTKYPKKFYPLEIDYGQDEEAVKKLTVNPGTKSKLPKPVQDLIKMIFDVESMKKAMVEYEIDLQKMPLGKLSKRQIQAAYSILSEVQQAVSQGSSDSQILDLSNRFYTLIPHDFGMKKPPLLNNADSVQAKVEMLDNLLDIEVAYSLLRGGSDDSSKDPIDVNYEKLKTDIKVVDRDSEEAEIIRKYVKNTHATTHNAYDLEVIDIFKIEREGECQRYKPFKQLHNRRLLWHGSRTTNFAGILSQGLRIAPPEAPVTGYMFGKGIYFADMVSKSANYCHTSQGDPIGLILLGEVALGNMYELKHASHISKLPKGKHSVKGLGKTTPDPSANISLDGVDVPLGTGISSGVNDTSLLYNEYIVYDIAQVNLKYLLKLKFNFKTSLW

SMILES	IC50 (PARP1 enzyme) [µM]	Papp A→B [1] [nm/s]	efflux ratio [1]	Kp uu at 24 h [2]	efficacy in tumors (tumors)
C[C@@H]1Nc2cc(F)cc3c(=O)[nH]nc(c23)[C@H]1c1ccc(F)cc1F [Compound 0174B, (8S,9S)-9-(2,4-difluorophenyl)-5-fluoro-8-methyl-2,7,8,9-tetrahydro-3H-pyrido[4,3,2-de]phthalazin-3-one]	0.008	138	0.654	0.591	
C[C@]1(c2nc3c(C(N)=O)cccc3[nH]2)CCCN1 [veliparib]					not efficacious in most tumors
O=c1[nH]nc2c3c(cc(F)cc13)NC[C@@H]2c1ccc(F)cc1F [Compound 0114B, (S)-9-(2,4-difluorophenyl)-5-fluoro-2,7,8,9-tetrahydro-3H-pyrido[4,3,2-de]phthalazin-3-one]	0.041	186	0.55	0.921	

From patent publication US20250346599A1, “TRICYCLIC PHTHALAZINONE PARP INHIBITORS AND METHODS OF USE” (Valo Health, Inc., priority 2022, published 2025)
